Assay results as given in PubChem BioAssay (NCI).
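GI50 = concentration required for 50% inhibition of growth. At the TGI there is no net growth.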

How the values were obtained:
Test in all cases: NCI-60 cell line screen, 384-well format
UACC-257 melanoma = tested on: UACC-257 melanoma
SF-295 CNS = tested on: SF-295 CNS
BT-549 breast = tested on: BT-549 breast
MCF7 breast = tested on: MCF7 breast
IGROV1 ovarian = tested on: IGROV1 ovarian
M14 melanoma = tested on: M14 melanoma
SK-MEL-28 melanoma = tested on: SK-MEL-28 melanoma
MDA-MB-468 breast = tested on: MDA-MB-468 breast
NCI-H23 lung = tested on: NCI-H23 lung
OVCAR-3 ovarian = tested on: OVCAR-3 ovarian
HS 578T breast = tested on: HS 578T breast
MDA-MB-231 breast = tested on: MDA-MB-231 breast
SNB-75 CNS = tested on: SNB-75 CNS
NCI-H522 lung = tested on: NCI-H522 lung
SN12C renal = tested on: SN12C renal
COLO 205 colon = tested on: COLO 205 colon
SW-620 colon = tested on: SW-620 colon
MOLT-4 leukemia = tested on: MOLT-4 leukemia
U251 glioblastoma = tested on: U251 glioblastoma
HT29 colon = tested on: HT29 colon
NCI-H226 lung = tested on: NCI-H226 lung
SK-MEL-2 melanoma = tested on: SK-MEL-2 melanoma
HL-60(TB) leukemia = tested on: HL-60(TB) leukemia
A549 NSCLC = tested on: A549 NSCLC
UO-31 renal = tested on: UO-31 renal
HOP-62 NSCLC = tested on: HOP-62 NSCLC
KM12 colon = tested on: KM12 colon
HCT-15 colon = tested on: HCT-15 colon
CAKI-1 renal = tested on: CAKI-1 renal
SK-OV-3 ovarian = tested on: SK-OV-3 ovarian
SK-MEL-5 melanoma = tested on: SK-MEL-5 melanoma
RXF 393 renal = tested on: RXF 393 renal
DU-145 prostate = tested on: DU-145 prostate
OVCAR-8 ovarian = tested on: OVCAR-8 ovarian
SR leukemia = tested on: SR leukemia
OVCAR-5 ovarian = tested on: OVCAR-5 ovarian
EKVX NSCLC = tested on: EKVX NSCLC
NCI-H322M lung = tested on: NCI-H322M lung
ACHN renal = tested on: ACHN renal
UACC-62 melanoma = tested on: UACC-62 melanoma
K-562 leukemia = tested on: K-562 leukemia
786-0 renal = tested on: 786-0 renal
PC-3 prostate = tested on: PC-3 prostate
SNB-19 CNS = tested on: SNB-19 CNS
NCI-H460 NSCLC = tested on: NCI-H460 NSCLC
HCT-116 colon = tested on: HCT-116 colon
MALME-3M melanoma = tested on: MALME-3M melanoma
T-47D breast = tested on: T-47D breast
HOP-92 NSCLC = tested on: HOP-92 NSCLC
A498 renal = tested on: A498 renal
SF-539 CNS = tested on: SF-539 CNS
MDA-MB-435 melanoma = tested on: MDA-MB-435 melanoma
OVCAR-4 ovarian = tested on: OVCAR-4 ovarian
SF-268 CNS = tested on: SF-268 CNS
TK-10 renal = tested on: TK-10 renal

## CC(C)(C)C[C@H]1NC(C(=O)NCC[C@H](O)CO)[C@H](c2cccc(Cl)c2)[C@@]12C(=O)Nc1cc(Cl)c(F)cc12 (stereo not given in full)
UACC-257 melanoma
  GI50: 1.76 µM
  TGI: 5.36 µM
SF-295 CNS
  GI50: 12.9 µM
  TGI: 25.6 µM
BT-549 breast
  GI50: 15.1 µM
  TGI: 28.5 µM
MCF7 breast
  GI50: 0.243 µM
  TGI: 1.77 µM
IGROV1 ovarian
  GI50: 6.37 µM
  TGI: 20.2 µM
M14 melanoma
  GI50: 10.3 µM
  TGI: 22.1 µM
SK-MEL-28 melanoma
  GI50: 16.7 µM
  TGI: 30.4 µM
MDA-MB-468 breast
  GI50: 3.31 µM
  TGI: 16.1 µM
NCI-H23 lung
  GI50: 15 µM
  TGI: 28.3 µM
OVCAR-3 ovarian
  GI50: 13.7 µM
  TGI: 26.7 µM
HS 578T breast
  GI50: 6.45 µM
  TGI: 20.4 µM
MDA-MB-231 breast
  GI50: 16.2 µM
  TGI: 29.8 µM
SNB-75 CNS
  GI50: 10.9 µM
  TGI: 22.9 µM
NCI-H522 lung
  GI50: 12.8 µM
  TGI: 25.5 µM
SN12C renal
  GI50: 17.1 µM
  TGI: 30.9 µM
COLO 205 colon
  GI50: 15.8 µM
  TGI: 29.3 µM
SW-620 colon
  GI50: 16.8 µM
  TGI: 30.6 µM
MOLT-4 leukemia
  GI50: 0.181 µM
  TGI: 0.341 µM
U251 glioblastoma
  GI50: 14.4 µM
  TGI: 27.6 µM
HT29 colon
  GI50: 15.8 µM
  TGI: 29.4 µM
NCI-H226 lung
  GI50: 0.515 µM
  TGI: 2.17 µM
SK-MEL-2 melanoma
  GI50: 14.6 µM
  TGI: 27.7 µM
HL-60(TB) leukemia
  GI50: 4.2 µM
  TGI: 16.5 µM
A549 NSCLC
  GI50: 2.94 µM
  TGI: 14.1 µM
UO-31 renal
  GI50: 4.29 µM
  TGI: 15.9 µM
HOP-62 NSCLC
  GI50: 16.5 µM
  TGI: 30.2 µM
KM12 colon
  GI50: 1.6 µM
  TGI: 12.8 µM
HCT-15 colon
  GI50: 17.4 µM
  TGI: 31.5 µM
CAKI-1 renal
  GI50: 0.605 µM
  TGI: 11.7 µM
SK-OV-3 ovarian
  GI50: 13.9 µM
  TGI: 27.1 µM
SK-MEL-5 melanoma
  GI50: 2.79 µM
  TGI: 16.4 µM
RXF 393 renal
  GI50: 2.38 µM
  TGI: 15.3 µM
DU-145 prostate
  GI50: 15.8 µM
  TGI: 29.4 µM
OVCAR-8 ovarian
  GI50: 16.4 µM
  TGI: 30.1 µM
SR leukemia
  GI50: 0.2 µM
  TGI: 0.394 µM
OVCAR-5 ovarian
  GI50: 15.9 µM
  TGI: 29.5 µM
EKVX NSCLC
  GI50: 12.5 µM
  TGI: 25 µM
NCI-H322M lung
  GI50: 17.5 µM
  TGI: 31.4 µM
ACHN renal
  GI50: 1.36 µM
  TGI: 10.6 µM
UACC-62 melanoma
  GI50: 0.591 µM
  TGI: 11.1 µM
K-562 leukemia
  GI50: 13.7 µM
  TGI: 27 µM
786-0 renal
  GI50: 15.6 µM
  TGI: 29 µM
PC-3 prostate
  GI50: 13.1 µM
  TGI: 25.9 µM
SNB-19 CNS
  GI50: 15.8 µM
  TGI: 29.4 µM
NCI-H460 NSCLC
  GI50: 14.6 µM
  TGI: 27.9 µM
HCT-116 colon
  GI50: 0.962 µM
  TGI: 13.8 µM
MALME-3M melanoma
  GI50: 0.582 µM
  TGI: 14.7 µM
T-47D breast
  GI50: 11.7 µM
  TGI: 24 µM
HOP-92 NSCLC
  GI50: 14.7 µM
  TGI: 27.8 µM
A498 renal
  GI50: 1.12 µM
  TGI: 11.7 µM
SF-539 CNS
  GI50: 13.4 µM
  TGI: 26.3 µM
MDA-MB-435 melanoma
  GI50: 14.6 µM
  TGI: 27.8 µM
OVCAR-4 ovarian
  GI50: 11.9 µM
  TGI: 24.3 µM
SF-268 CNS
  GI50: 16 µM
  TGI: 29.6 µM
TK-10 renal
  GI50: 14.6 µM
  TGI: 28.2 µM
